Measurements published in patent US20260306377A1, “ANTIMICROBIAL COMPOSITIONS CONTAINING A CATIONIC ANTIMICROBIAL AND AN ACIDIC GLYCOLOPID” (LANXESS CORPORATION, priority 2023, published 2026).

Tested on: mixed bacterial inoculum and mixed fungal inoculum
Test: challenge test, overall result (bacteria and fungi)
Format: cell-based
Conditions: anionic xanthan gum lotion dosed with the substance(s)
Method: Preservative activity in representative formulations was evaluated by using a modification of the Personal Care Products Council (PCPC) protocol (Machtiger, et al. 2001. Determination of the Efficacy of Preservation of Non-Eye Area Water Miscible Cosmetic and Toiletry Formulations: Collaborative Study. J of AOAC International. 84:1, 101-109). The evaluation was conducted using a four week, two-cycle microbial preservative efficacy test (challenge test) at 25° C. to determine the preservative efficacy of each treatment.
Xanthan gum is commonly used as a natural rheological modifier in personal care products. The formulation below was made by heating the aqueous (A) and oil (B) phases separately to 75-80° C. The oil phase was then poured into the aqueous phase and mixed by an overhead mixer and a homogenizer. The oil-in-water emulsion was cooled to room temperature. Sodium hydroxide solution was used to adjust the pH.
Lotion formulation samples were dosed with certain test materials as shown further below and mixed thoroughly at room temperature, and the formulation samples were divided into two separate aliquots of 5 gram each. One aliquot was inoculated with 50 μl of a diluted bacterial pool, the second aliquot was inoculated with 50 μl of a diluted fungal pool as described below. Unpreserved product samples were included in the test as a growth control.
A mixed bacterial inoculum was prepared using 24-hour cultures of the test bacteria (Table 2) grown in trypticase soy broth (TSB). Equal volumes of the bacterial test strains were combined and diluted one to ten in phosphate buffer to obtain an inoculum of approximately 5×10^7 to 5×10^8 colony forming units per ml (cfu/ml). The test samples were inoculated with 1% of the mixed bacterial inoculum. A mixed fungal inoculum was prepared using cell suspensions of the yeast Candida albicans ATCC #10231 and the mold Aspergillus brasiliensis ATCC #16404 in phosphate buffer. Equal volumes of the fungal test strains were combined and diluted one to ten with phosphate buffer to obtain an inoculum of approximately 5×10^6 to 5×10^7 cfu/ml. The test samples were inoculated with […] of the mixed fungal inoculum.
The samples were subjected to microbial challenge at time zero and inoculated a second time after seven days. The number of microorganisms added to each sample was determined by a standard Most Probable Number (MPN) determination in Trypticase Soy Broth (TSB) for bacteria and Potato Dextrose Broth (PDB) for fungi. Samples were incubated at 25° C. for the test duration of four weeks. Samples were monitored for bacterial and fungal contamination after 2, 7, 14, 21, and 28 days. Samples challenged with bacteria were streak-plated onto Trypticase Soy Agar (TSA) and incubated at 30° C. for 24 hours. Samples challenged with fungi were streak-plated onto Potato Dextrose Agar (PDA) and incubated at 25° C. for 7 days. After incubation, plates were given a Growth Rating to determine the colony forming units per gram (CFU/g) present in each test sample at the testing time point. As is used by various challenge test methods, the passing criteria is more stringent for bacteria than for fungi. […]
For bacteria challenge testing, a composition was scored as “Pass” if the composition obtained a growth rating score caused by bacteria of 1 or less at days 21-28 of the testing period and was scored as “Fail” if the composition obtained a growth rating score caused by bacteria of 2 or more at days 21-28 of the testing period. […]

`N=C(NCCCCCCNC(=N)NC(=N)Nc1ccc(Cl)cc1)NC(=N)Nc1ccc(Cl)cc1.O=C(O)[C@H](O)[C@@H](O)[C@H](O)[C@H](O)CO.O=C(O)[C@H](O)[C@@H](O)[C@H](O)[C@H](O)CO` [CHD.G, Chlorhexidine digluconate] was tested, and the “challenge test outcome (in words)” value was “none of the lotion formulations passed the challenge test”.
For `CC(=O)c1ccc(O)cc1` [HAP, 4-Hydroxyacetophenone], the “challenge test outcome (in words)” value was “none of the lotion formulations passed the challenge test”.
For `O=C(O)c1ccccc1` [NaBz, Sodium benzoate], the “challenge test outcome (in words)” value was “none of the lotion formulations passed the challenge test”.
For `CCCCCCCCCCCC(=O)N[C@@H](CCCN=C(N)N)C(=O)OCC.Cl` [LAE, Ethyl lauroyl arginate HCl], the “challenge test outcome (in words)” value was “none of the lotion formulations passed the challenge test”.
In the case of `CCCCCCCC(=O)OCC(O)CO` (centres unmarked) [GC, Glyceryl caprylate], the “challenge test outcome (in words)” value is reported as “none of the lotion formulations passed the challenge test”.
